Test results: patent US8735140B2, “Preservation and composition of bioprocess algae for production of lipids, seedstock, and feed” (Kuehnle AgroSystems, Inc., priority 2008, dated 2014)

Legend:
Experiment in all cases: Trehalose preservation, storage by embedding in alginate mat
Format in all cases: cell-based
Synechocystis KAS635 = conditions: 0.3M trehalose in BG11 only
Method: (§1) Flask cultures (40 ml) of cells are grown to mid-log phase with a density between 3×10^6 and 3×10^7 cells/ml, and are centrifuged. Culture medium is removed after centrifugation, resulting in more concentrated algae cells. Cells are then re-suspended in fresh medium and left overnight. Cells are centrifuged again the next day in order to remove the medium, and are then re-suspended in fresh or salt water without any nutrient. The cell density of the suspension is determined prior to storage under the various treatments. Cells in 40 ml flask cultures are grown to mid-log phase with a density of between 3×10^6 and 3×10^7 cells/ml, and are centrifuged. Culture medium is removed after centrifugation, resulting in more concentrated algae cells. Cells are then re-suspended in ideal glass solution consisting of fresh culture medium and trehalose at a concentration of 0.1M, 0.3M, and 0.5M (dihydrate trehalose 100 from Hayashibara Co. Ltd, Okayama, Japan), respectively, and left overnight with mild agitation. Cells are centrifuged again to remove the ideal glass solution the next day, and are re-suspended in fresh or salt water without any nutrient. The cell density of the resulting suspension is determined prior to storage under the various treatments. (Some cells were also treated with a 0.5M sorbitol solution). In one specific embodiment, 2% (w/v) alginate solution (Sigma-Aldrich A-2033) and 3% CaCl2 solution (Sigma-Aldrich C1016) are prepared in salt water or fresh water medium as required by specific algae species, and autoclave sterilized. Then, 2.0 ml 2% alginate solution is pipetted into each well of a BD Falcon 12-well plate. 0.2 ml algae cell suspension is then pipetted into each well and the mixture is further stirred. The alginate-cell mixture is further sprayed with 3% CaCl2 solution in a sterile pump bottle, allowing the alginate to solidify. After solidification, plates are closed and placed under low light and at ambient temperature. After stored under the above preservation conditions for 5 months, algae cells can be rejuvenated by overlaying alginate/algae mixture with 3.0 ml sterile 5.0% NaPolyphosphate (Sigma Aldrich 305553) and allowing to the mixture sit overnight. The algae/alginate/NaPolyphosphate mixture is then removed from the 12-well plate, diluted with fresh medium (3 parts fresh medium to 1 part cell suspension) and placed under light. Cell viability is determined by comparing the cell growth in control set with the experimental set. Specifically, cell counts are performed on all samples. The averaged density value (in cells per ml) for all the cultures after treatment is defined as “rejuvenation cell count.” In some samples, the percent recovery of cells immediately after storage is also determined. The formulae are illustrated as follows: Growth=(rejuvenation cell count)/(initial cell count) Cell recovery after storage=(cell density after storage)/(initial cell density), with controls set at 100% cell recovery. Viability after storage and rejuvenation in nutrient medium=(Growth of treatment)/(Growth of control)×100%, with controls set at 100% viability

Tetraselmis KAS633 = system: Tetraselmis KAS633
Method: as §1

Chlorella KAS503 = system: Chlorella KAS503
Method: as §1

Chlorella KAS603 = system: Chlorella KAS603
Method: as §1

[1] = 0.3M trehalose in F/2, 21 weeks storage and 3 weeks rejuvenation
[2] = 0.3M trehalose in F/2, 21 weeks storage and 3 weeks rejuvenation in nutrient medium
[3] = 0.3M trehalose in F/2, 21 weeks storage and 3 weeks rejuvenation, 0M control = 100%
[4] = 0.3M trehalose in F/2, 21 weeks storage in water (no nutrients)
[5] = 0.3M trehalose in F/2, 21 weeks storage, 0M control = 100%
[6] = 0.3M trehalose in F/2, 21 weeks storage, density after storage/initial density

Question: `OC[C@H]1O[C@H](O[C@H]2O[C@H](CO)[C@@H](O)[C@H](O)[C@H]2O)[C@H](O)[C@@H](O)[C@@H]1O` [trehalose, α-D-glycosyl-α-D-glycosylpyranoside] was tested. Which Growth (Synechocystis KAS635; 21 weeks storage and 3 weeks rejuvenation) did it give?
Answer: 4.72

Question: What about the “Cell number after storage & regrowth” value (Synechocystis KAS635; 21 weeks storage and 3 weeks rejuvenation in nutrient medium) of the same compound?
Answer: 4.620 × 10^7 cells/ml

Question: And the “% Viability” value (Synechocystis KAS635; 21 weeks storage and 3 weeks rejuvenation, 0M control = 100%)?
Answer: 129%

Question: And the “Cell number after storage” value (Synechocystis KAS635; 21 weeks storage in water (no nutrients))?
Answer: 9.798 × 10^6 cells/ml

Question: What about the “Cell recovery after storage, relative to control” value (Synechocystis KAS635; 21 weeks storage, 0M control = 100%) of the same compound?
Answer: (180%)

Question: What about the “Cell recovery after storage” value (Synechocystis KAS635; 21 weeks storage, density after storage/initial density) of the same compound?
Answer: 0.29

Question: What about the Growth (Tetraselmis KAS633; [1]) of the same compound?
Answer: 4.63

Question: What about the “Cell number after storage & regrowth” value (Tetraselmis KAS633; [2]) of the same compound?
Answer: 1.375 × 10^7 cells/ml

Question: What about the “% Viability” value (Tetraselmis KAS633; [3]) of the same compound?
Answer: (102%)

Question: And the “Cell number after storage” value (Tetraselmis KAS633; [4])?
Answer: 2.97 × 10^6 cells/ml

Question: What about the “Cell recovery after storage, relative to control” value (Tetraselmis KAS633; [5]) of the same compound?
Answer: (142%)

Question: And the “Cell recovery after storage” value (Tetraselmis KAS633; [6])?
Answer: 2.22

Question: And the Growth (Chlorella KAS503; [1])?
Answer: 5.46

Question: What about the “Cell number after storage & regrowth” value (Chlorella KAS503; [2]) of the same compound?
Answer: 1.012 × 10^8 cells/ml

Question: What about the “Cell number after storage” value (Chlorella KAS503; [4]) of the same compound?
Answer: 1.860 × 10^7 cells/ml

Question: And the “Cell recovery after storage, relative to control” value (Chlorella KAS503; [5])?
Answer: (84%)

Question: And the “Cell recovery after storage” value (Chlorella KAS503; [6])?
Answer: 1.8

Question: And the Growth (Chlorella KAS603; [1])?
Answer: 2.72

Question: And the “Cell number after storage & regrowth” value (Chlorella KAS603; [2])?
Answer: 4.480 × 10^7 cells/ml

Question: And the “% Viability” value (Chlorella KAS603; [3])?
Answer: (149%)

Question: What about the “Cell number after storage” value (Chlorella KAS603; [4]) of the same compound?
Answer: 1.646 × 10^7 cells/ml

Question: What about the “Cell recovery after storage, relative to control” value (Chlorella KAS603; [5]) of the same compound?
Answer: (221%)
